One may read the IC50 as the point on the concentration scale where inhibition reaches its midpoint. The term CC50 denotes the concentration at which the toxic effect on the cells reaches its halfway point. A higher CC50 goes with lower toxicity to the cells. As a reminder, the half-life is how long it takes for the measured level to halve. As a reminder, the EC75 is the point of the concentration-response curve where the effect stands at 75%. Read a high EC75 as weaker potency. In general, EC99 refers to the concentration needed for an effect of 99%. A lower EC99 goes with greater potency.

Data set [1] addresses SARS-CoV-2 M^pro/3CL^pro (Severe acute respiratory syndrome coronavirus 2, UniProt P0DTD1). Nature of the data set: biochemical. Conditions: for IC50 fold change to 5h (in parentheses): Table 1.
Data set [2] in a line: in vitro. Conditions: African green monkey, CC50, Table 1; VeroE6 cells, WST-8. For orientation: Tetrazolium dyes change colour on reduction, which living cells bring about.
A short description of data set [3]: in vivo. Conditions: female, Jcl:ICR (ICR), mouse, iv, 2 mg/kg, mice, i.v. 2.0 mg/kg, 240 min.
Data set [4] deals with SARS-CoV-2 WK-521 (ancestral Wuhan strain). The data set is classed as cell-based. Conditions: Table 2; VeroE6 cells, RNA-qPCR. In general terms: In qPCR the cycle at which signal appears reflects the starting amount.
The conditions of data set [5]: mice.
The test system of data set [6] is SARS-CoV-2 WK-521 infected VeroE6 cells. Conditions: concentrations up to 100 μM (Figure S3).

Like-named read-outs stand apart in the source and are kept apart here.

For the compound `CC(C)C[C@H](NC(=O)c1cc2c(F)cc(F)cc2[nH]1)C(=O)N[C@@H](C[C@@H]1CCNC1=O)C(=O)c1nc2cc(F)ccc2s1` [Compound 54], in data set [1], the half-inhibitory concentration (IC50) is 540 ± 20 nM and the “IC50 fold change to 5h (in parentheses)” value was determined as 1.5. In addition, the half-maximal cytotoxic concentration (CC50) in data set [2] is above 100000 nM.

`CCC(CC)COC(=O)[C@H](C)N[P@](=O)(OC[C@H]1O[C@@](C#N)(c2ccc3c(N)ncnn23)[C@H](O)[C@@H]1O)Oc1ccccc1` [Remdesivir, reference compound] yielded a 50% cytotoxic concentration (CC50) in data set [2] above 100000 nM.

`CC(C)C[C@H](NC(=O)c1cc2c(F)ccc(F)c2[nH]1)C(=O)N[C@@H](C[C@@H]1CCNC1=O)C(=O)c1nc2cc(F)ccc2s1` [Compound 44]: in data set [1], 120 ± 10 nM corresponded to half-maximal inhibition (IC50) and the “IC50 fold change to 5h (in parentheses)” value amounted to 0.34. In data set [3], this compound showed a half-life of around 30 min. This compound also came in with a CC50 in data set [2] above 100000 nM.

In data set [4], `CC(C)(C)[C@H](NC(=O)C(F)(F)F)C(=O)N1C[C@H]2[C@@H]([C@H]1C(=O)N[C@H](C#N)C[C@@H]1CCNC1=O)C2(C)C` [PF-07321332 (1), Nirmatrelvir, reference compound] showed an EC75 of 4400 ± 210 nM and an EC99 of 9.7 ± 0.015 µM. The same compound displayed a half-life in data set [3] below 23 min. In data set [2], this compound had a cytotoxic concentration (CC50) above 100000 nM.

For the compound `COc1cccc2[nH]c(C(=O)N[C@@H](CC(C)C)C(=S)N[C@@H](C[C@@H]3CCNC3=O)C(=O)c3nc4ccccc4s3)cc12` [Compound 60], in data set [1], it took 990 ± 60 nM to reach half-maximal inhibition (IC50) and the “IC50 fold change to 5h (in parentheses)” value was 2.8. Besides, the “blood concentrations after administration” value in data set [5] (i.v. 2.0 mg/kg) is “High blood concentrations of compound 60 were maintained after 60 min, and even 240 min had passed”. For the same compound, the “half-life, times longer than that of the parent compound” value in data set [5] (i.v. 2.0 mg/kg, relative to 5h (2)) is listed as 2–3 times. In addition, the half-life in data set [3] is 50 to 60 min. The same compound registered a CC50 in data set [2] above 100000 nM.

In data set [4], `COc1ccc(F)c2[nH]c(C(=O)N[C@@H](CC(C)C)C(=O)N[C@@H](C[C@@H]3CCNC3=O)C(=O)c3nc4c(F)cccc4s3)cc12` [Compound 3] returned an EC75 of 460 ± 20 nM and a 99% effect concentration (EC99) of 0.97 ± 0.0020 µM. Also, in data set [1], the IC50 worked out at 37 ± 1 nM and the “IC50 fold change to 5h (in parentheses)” value was determined as 0.10. In addition, the “cytotoxicity in immunostaining experiments” value in data set [6] is on record as “no significant cytotoxicity at concentrations up to 100 μM”. The compound further came in with a cytotoxic concentration (CC50) in data set [2] above 100000 nM.

For the compound `COc1ccc(F)c2[nH]c(C(=O)N[C@@H](CC(C)C)C(=S)N[C@@H](C[C@@H]3CCNC3=O)C(=O)c3nc4c(F)cccc4s3)cc12` [Compound 4], the 75% effect concentration (EC75) in data set [4] was 590 ± 30 nM. For the same compound, in data set [4], the EC99 turned out to be 4.1 ± 3.1 µM. The compound further had a concentration for half-maximal inhibition (IC50) in data set [1] of 370 ± 15 nM. Moreover, the “IC50 fold change to 5h (in parentheses)” value in data set [1] came out at 1.0. In addition, the “blood concentrations after administration” value in data set [5] (i.p. 20 mg/kg) is “maintained remarkably higher blood concentrations than compound 3”; in data set [5] (i.v. 2.0 mg/kg), “higher blood concentrations of compound 4 were maintained compared with those of compound 3 after 60 min, and even 240 min”; in data set [5] (p.o.), “maintained remarkably higher blood concentrations for the first day than compound 3”. Moreover, the “cytotoxicity in immunostaining experiments” value in data set [6] is “no significant cytotoxicity at concentrations up to 100 μM”. The compound also came in with a CC50 in data set [2] above 100000 nM.

Values taken from article PMC9623849 (iScience, 2022).
